Experiment [1] has as its system A549. The experiment is described as follows: Cytotoxicity against human A549 cells assessed as reduction in cell viability after 48 hrs by MTT assay. It is filed as functional, cell-based. As to conditions: A549, 48 h.
A further experiment deals with Pseudomonas aeruginosa. The experiment is described as follows: Antimicrobial activity against Pseudomonas aeruginosa ATCC 15442 at 20.5 to 43.5 ug/ml by microbroth method. It is filed as functional, organism-based. Background: Dilution methods test growth across graded concentrations, often in twofold steps.
In another experiment the test system is Candida albicans. Description: Antifungal activity against Candida albicans ATCC 90027 at 20.5 to 43.5 ug/ml by microbroth method. The class given is functional, organism-based.
Experiment [2] deals with MCF7. Description: Cytotoxicity against human MCF7 cells assessed as reduction in cell viability after 48 hrs by MTT assay. The class given is functional, cell-based. As to conditions: MCF7, 48 h. Background: Tetrazolium assays rely on reduction of a dye to a coloured formazan, in cell work by metabolically active cells.
The subject of the next experiment is Bacillus subtilis. The experiment is described as follows: Antimicrobial activity against Bacillus subtilis ATCC 49343 at 20.5 to 43.5 ug/ml by microbroth method. The class given is functional, organism-based.
The test system of the next experiment is Enterococcus faecium. Description: Antimicrobial activity against Enterococcus faecium ATCC 49032 at 20.5 to 43.5 ug/ml by microbroth method. The class given is functional, organism-based.
The subject of a further experiment is Staphylococcus aureus. The experiment is described as follows: Antimicrobial activity against Staphylococcus aureus ATCC 25923 at 20.5 to 43.5 ug/ml by microbroth method. It is filed as functional, organism-based.
The next experiment deals with Escherichia coli. Description: Antimicrobial activity against Escherichia coli ATCC 8739 at 20.5 to 43.5 ug/ml by microbroth method. It is filed as functional, organism-based.
In experiment [3] the test system is PC-3. Description: Cytotoxicity against human PC3 cells assessed as reduction in cell viability after 48 hrs by MTT assay. The class given is functional, cell-based. As to conditions: PC-3, 48 h.
The test system of experiment [4] is SK-MEL-5. The experiment is described as follows: Cytotoxicity against human SK-MEL-5 cells assessed as reduction in cell viability after 48 hrs by MTT assay. The class given is functional, cell-based. The settings on record: SK-MEL-5, 48 h.
In experiment [5] the test system is HCT-116. Description: Cytotoxicity against human HCT116 cells assessed as reduction in cell viability after 48 hrs by MTT assay. As to conditions: HCT-116, 48 h. It is filed as functional, cell-based.
Experiment [6] has as its system SK-MEL-5. The experiment is described as follows: Cytotoxicity against human SK-MEL-5 cells assessed as cell survival at 250 uM after 48 hrs by MTT assay. The class given is functional. As to conditions: SK-MEL-5, 48 h, read-out: Survival.
Experiment [7] deals with A549. Description: Cytotoxicity against human A549 cells assessed as cell survival at 250 uM after 48 hrs by MTT assay. As to conditions: A549, 48 h, read-out: Survival. It is filed as functional.
Experiment [8] concerns MCF7. The experiment is described as follows: Cytotoxicity against human MCF7 cells assessed as cell survival at 250 uM after 48 hrs by MTT assay. The class given is functional. The settings on record: MCF7, 48 h, read-out: Survival.
Experiment [9] has as its system PC-3. Description: Cytotoxicity against human PC3 cells assessed as cell survival at 250 uM after 48 hrs by MTT assay. The class given is functional. The settings on record: PC-3, 48 h, read-out: Survival.
Experiment [10] has as its system HCT-116. Description: Cytotoxicity against human HCT116 cells assessed as cell survival at 250 uM after 48 hrs by MTT assay. The class given is functional. As to conditions: HCT-116, 48 h, read-out: Survival.

Activity calls are given as the source filed them. The calls are words filed in the database; no cut-off is given here. Bounds are passed on as bounds.

On to `COc1cc2c(c(O)c1Cl)C(=O)c1c(O)cc(C[C@H](C)O)cc1[C@@H]2[C@H]1c2cc(C[C@H](C)O)cc(O)c2C(=O)c2c1cc(OC)c(Cl)c2O`, for which the half-maximal inhibitory concentration (IC50) – broadly, the point on the concentration scale where inhibition reaches its midpoint – was greater than 20 µM in the experiment on A549 [1]; greater than 20 µM in the experiment with MCF7 [2]; greater than 20 µM in the experiment on PC-3 [3]; 19.7 µM in the experiment with SK-MEL-5 [4]; 13.7 µM with HCT-116 [5]. For the same molecule, the result in the experiment on Pseudomonas aeruginosa, with Candida albicans, in the experiment with Bacillus subtilis, in the experiment on Enterococcus faecium, with Staphylococcus aureus and with Escherichia coli was inactive.

Regarding `COc1cc2c(c(O)c1Cl)C(=O)c1c(O)cc(C[C@H](C)O)cc1[C@H]2[C@H]1c2cc(C[C@H](C)O)cc(O)c2C(=O)c2c1cc(OC)c(Cl)c2O`, the concentration for half-maximal inhibition (IC50) is greater than 20 µM in the experiment on A549 [1]; greater than 20 µM in the experiment with MCF7 [2]; greater than 20 µM with PC-3 [3]; 11 µM with SK-MEL-5 [4]; 9 µM with HCT-116 [5]. Besides, the result in the experiment on Pseudomonas aeruginosa, in the experiment with Candida albicans, in the experiment with Bacillus subtilis, with Enterococcus faecium, in the experiment on Staphylococcus aureus and with Escherichia coli was inactive.

Turning to `COc1cc2c(c(O)c1Cl)C(=O)c1c(O)cc(C[C@H](C)O)cc1[C@H]2[C@@H]1c2cc(C[C@H](C)O)cc(O)c2C(=O)c2c1cc(OC)c(Cl)c2O`, the 50% inhibitory concentration (IC50) was greater than 20 µM with A549 [1]; greater than 20 µM in the experiment with MCF7 [2]; greater than 20 µM in the experiment on PC-3 [3]; 12.2 µM with SK-MEL-5 [4]; 10.5 µM in the experiment on HCT-116 [5]. Also, the result in the experiment with Pseudomonas aeruginosa, in the experiment on Candida albicans, with Bacillus subtilis, with Enterococcus faecium, with Staphylococcus aureus and in the experiment with Escherichia coli was inactive.

For `COc1cc([C@@H]2c3cc4c(cc3[C@@H](O[C@@H]3O[C@@H]5CO[C@@H](C)O[C@H]5[C@H](O)[C@H]3O)[C@H]3COC(=O)[C@H]23)OCO4)cc(OC)c1O` [ETOPOSIDE], the viability at 250 µM in the experiment on SK-MEL-5 [6] was determined as 26.4%; with A549 [7] it was 19.7%; in the experiment on MCF7 [8], 43.8%; in the experiment with PC-3 [9], 45.5%; in the experiment on HCT-116 [10], 11.6%.
